Tests used:
[1] = target: T1, Alpha-1D adrenergic receptor (Homo sapiens, UniProt P25100); assay type: cell membranes, HEK293, Membrane; conditions: hek293; also: in other assays of this panel Not Active means under 50% inhibition at 10 µM
T1 sequence (P25100 whole entry): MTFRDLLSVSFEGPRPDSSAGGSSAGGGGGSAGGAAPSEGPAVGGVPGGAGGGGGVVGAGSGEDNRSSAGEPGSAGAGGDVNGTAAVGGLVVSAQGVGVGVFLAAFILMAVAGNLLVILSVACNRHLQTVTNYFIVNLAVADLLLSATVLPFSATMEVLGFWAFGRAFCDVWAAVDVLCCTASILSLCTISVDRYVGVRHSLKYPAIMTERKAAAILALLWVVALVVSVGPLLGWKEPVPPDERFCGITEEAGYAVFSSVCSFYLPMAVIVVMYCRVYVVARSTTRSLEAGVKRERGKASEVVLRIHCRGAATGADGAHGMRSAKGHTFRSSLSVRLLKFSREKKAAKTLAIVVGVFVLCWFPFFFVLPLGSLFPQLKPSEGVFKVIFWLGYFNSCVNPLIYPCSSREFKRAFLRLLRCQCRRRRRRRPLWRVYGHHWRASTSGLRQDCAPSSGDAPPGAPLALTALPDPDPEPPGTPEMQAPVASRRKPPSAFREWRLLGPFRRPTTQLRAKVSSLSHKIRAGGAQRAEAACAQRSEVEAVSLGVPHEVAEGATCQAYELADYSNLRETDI

[2] = DRUGMATRIX: Tumor Necrosis Factor (TNF), Non-Selective radioligand binding (ligand: [125I] TNF-alpha); assay type: cell membranes, Membrane; conditions: u-937; Not Active = under 50% inhibition at 10 µM
Endothelin-1 receptor = target: T2, Endothelin-1 receptor (Homo sapiens, UniProt P25101); assay type: cell membranes, Membrane; conditions: cho-k1; also: in other assays of this panel Not Active means under 50% inhibition at 10 µM
T2 sequence (P25101 whole entry): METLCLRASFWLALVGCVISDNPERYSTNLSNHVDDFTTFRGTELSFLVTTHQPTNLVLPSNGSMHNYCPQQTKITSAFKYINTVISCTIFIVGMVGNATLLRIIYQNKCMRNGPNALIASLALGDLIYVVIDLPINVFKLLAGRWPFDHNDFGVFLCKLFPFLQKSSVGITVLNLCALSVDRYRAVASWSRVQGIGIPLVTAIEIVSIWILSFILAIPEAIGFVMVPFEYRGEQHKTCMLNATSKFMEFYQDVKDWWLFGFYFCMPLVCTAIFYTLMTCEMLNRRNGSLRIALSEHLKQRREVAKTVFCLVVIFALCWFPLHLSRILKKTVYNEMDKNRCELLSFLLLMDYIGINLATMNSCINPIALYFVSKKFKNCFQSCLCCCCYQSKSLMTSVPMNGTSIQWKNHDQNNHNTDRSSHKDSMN

Histamine H2 receptor = Histamine H2 receptor (Homo sapiens, UniProt P25021); assay type: cell membranes, CHO-K1, Membrane; conditions: cho-k1; also: in other assays of this panel Not Active means under 50% inhibition at 10 µM
Melanocortin receptor 3 = Melanocortin receptor 3 (Homo sapiens, UniProt P41968); assay type: cell membranes, Membrane; conditions: hek293; also: in other assays of this panel Not Active means under 50% inhibition at 10 µM
Melanocortin receptor 4 = Melanocortin receptor 4 (Homo sapiens, UniProt P32245); assay type: cell membranes, Membrane; conditions: hek293; also: in other assays of this panel Not Active means under 50% inhibition at 10 µM
[3] = DRUGMATRIX: Potassium Channel [KATP] radioligand binding (ligand: [3H] Glyburide); assay type: cell membranes, Membrane; conditions: hit-t15; Not Active = under 50% inhibition at 10 µM

Sequence of Histamine H2 receptor (P25021 whole entry): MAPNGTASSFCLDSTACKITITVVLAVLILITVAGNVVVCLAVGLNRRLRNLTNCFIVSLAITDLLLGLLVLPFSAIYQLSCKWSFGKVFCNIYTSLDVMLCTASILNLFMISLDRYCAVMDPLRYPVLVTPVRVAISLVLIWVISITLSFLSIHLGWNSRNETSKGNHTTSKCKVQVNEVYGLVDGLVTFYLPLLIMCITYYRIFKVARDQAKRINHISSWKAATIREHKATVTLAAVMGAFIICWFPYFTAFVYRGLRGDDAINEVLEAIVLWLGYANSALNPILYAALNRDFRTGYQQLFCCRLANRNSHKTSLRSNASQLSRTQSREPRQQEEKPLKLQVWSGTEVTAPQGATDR
Sequence of Melanocortin receptor 3 (P41968 whole entry): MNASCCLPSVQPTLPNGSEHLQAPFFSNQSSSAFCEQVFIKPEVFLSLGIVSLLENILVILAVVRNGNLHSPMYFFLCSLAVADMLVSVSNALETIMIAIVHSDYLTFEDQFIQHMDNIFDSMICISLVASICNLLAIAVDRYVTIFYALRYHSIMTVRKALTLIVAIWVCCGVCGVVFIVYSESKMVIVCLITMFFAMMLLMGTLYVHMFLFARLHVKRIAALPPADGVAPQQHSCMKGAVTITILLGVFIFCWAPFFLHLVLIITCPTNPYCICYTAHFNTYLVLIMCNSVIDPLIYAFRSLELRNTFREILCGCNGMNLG
Sequence of Melanocortin receptor 4 (P32245 whole entry): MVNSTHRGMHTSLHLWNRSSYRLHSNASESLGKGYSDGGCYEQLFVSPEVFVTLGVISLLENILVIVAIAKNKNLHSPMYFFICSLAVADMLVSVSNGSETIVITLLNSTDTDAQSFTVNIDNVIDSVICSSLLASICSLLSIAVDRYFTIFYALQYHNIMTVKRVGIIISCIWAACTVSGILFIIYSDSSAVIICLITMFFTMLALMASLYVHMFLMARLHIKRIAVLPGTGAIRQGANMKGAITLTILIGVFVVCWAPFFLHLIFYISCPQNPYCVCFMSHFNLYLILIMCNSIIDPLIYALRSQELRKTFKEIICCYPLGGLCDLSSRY

CC(=O)OCC(=O)[C@@]1(O)CC[C@H]2[C@@H]3CCC4=CC(=O)CC[C@]4(C)[C@H]3C(=O)C[C@@]21C [CORTISONE ACETATE]
Not Active: IC50 [1] | IC50 [2] | Ki [2] | IC50 (Endothelin-1 receptor) | IC50 (Histamine H2 receptor) | IC50 (Melanocortin receptor 3) | IC50 (Melanocortin receptor 4) | IC50 [3] | Ki [3]

O=c1ccc2ccccc2o1 [COUMARIN]
Not Active: IC50 [1] | IC50 [2] | Ki [2] | IC50 (Endothelin-1 receptor) | IC50 (Histamine H2 receptor) | IC50 (Melanocortin receptor 3) | IC50 (Melanocortin receptor 4) | IC50 [3] | Ki [3]

C[C@@H]1C[C@@H]([C@H](O)CC2CC(=O)NC(=O)C2)C(=O)[C@@H](C)C1 [CYCLOHEXIMIDE]
Not Active: IC50 [1] | IC50 [2] | Ki [2] | IC50 (Endothelin-1 receptor) | IC50 (Histamine H2 receptor) | IC50 (Melanocortin receptor 3) | IC50 (Melanocortin receptor 4) | IC50 [3] | Ki [3]

C/C=C/C[C@@H](C)[C@@H](O)[C@H]1C(=O)N[C@@H](CC)C(=O)N(C)CC(=O)N(C)[C@@H](CC(C)C)C(=O)N[C@@H](C(C)C)C(=O)N(C)[C@@H](CC(C)C)C(=O)N[C@@H](C)C(=O)N[C@H](C)C(=O)N(C)[C@@H](CC(C)C)C(=O)N(C)[C@@H](CC(C)C)C(=O)N(C)[C@@H](C(C)C)C(=O)N1C [CYCLOSPORINE]
Not Active: IC50 [1] | IC50 [2] | Ki [2] | IC50 (Endothelin-1 receptor) | IC50 (Histamine H2 receptor) | IC50 (Melanocortin receptor 3) | IC50 (Melanocortin receptor 4) | IC50 [3] | Ki [3]

CN(C)/N=N/c1[nH]cnc1C(N)=O [DACARBAZINE]
Not Active: IC50 [1] | IC50 [2] | Ki [2] | IC50 (Endothelin-1 receptor) | IC50 (Histamine H2 receptor) | IC50 (Melanocortin receptor 3) | IC50 (Melanocortin receptor 4) | IC50 [3] | Ki [3]

COc1ccc2c(c1)[C@]13CCCC[C@@H]1[C@H](C2)N(C)CC3 [DEXTROMETHORPHAN]
Not Active: IC50 [1] | IC50 [2] | Ki [2] | IC50 (Endothelin-1 receptor) | IC50 (Histamine H2 receptor) | IC50 (Melanocortin receptor 3) | IC50 (Melanocortin receptor 4) | IC50 [3] | Ki [3]

CC(=O)Nc1c(I)c(NC(C)=O)c(I)c(C(=O)O)c1I [DIATRIZOIC ACID]
Not Active: IC50 [1] | IC50 [2] | Ki [2] | IC50 (Endothelin-1 receptor) | IC50 (Histamine H2 receptor) | IC50 (Melanocortin receptor 3) | IC50 (Melanocortin receptor 4) | IC50 [3] | Ki [3]

COP(=O)(OC)OC=C(Cl)Cl [DICHLORVOS]
Not Active: IC50 [1] | IC50 [2] | Ki [2] | IC50 (Endothelin-1 receptor) | IC50 (Histamine H2 receptor) | IC50 (Melanocortin receptor 3) | IC50 (Melanocortin receptor 4) | IC50 [3] | Ki [3]

O=C(O)Cc1ccccc1Nc1c(Cl)cccc1Cl [DICLOFENAC]
Not Active: IC50 [1] | IC50 [2] | Ki [2] | IC50 (Endothelin-1 receptor) | IC50 (Histamine H2 receptor) | IC50 (Melanocortin receptor 3) | IC50 (Melanocortin receptor 4) | IC50 [3] | Ki [3]

C[C@H]1O[C@@H](O[C@H]2[C@@H](O)C[C@H](O[C@H]3[C@@H](O)C[C@H](O[C@H]4CC[C@@]5(C)[C@H](CC[C@@H]6[C@@H]5CC[C@]5(C)[C@@H](C7=CC(=O)OC7)CC[C@]65O)C4)O[C@@H]3C)O[C@@H]2C)C[C@H](O)[C@@H]1O [DIGITOXIN]
Not Active: IC50 [1] | IC50 [2] | Ki [2] | IC50 (Endothelin-1 receptor) | IC50 (Histamine H2 receptor) | IC50 (Melanocortin receptor 3) | IC50 (Melanocortin receptor 4) | IC50 [3] | Ki [3]

CCN1CC(CCN2CCOCC2)C(c2ccccc2)(c2ccccc2)C1=O (centres undefined) [DOXAPRAM]
Not Active: IC50 [1] | IC50 [2] | Ki [2] | IC50 (Endothelin-1 receptor) | IC50 (Histamine H2 receptor) | IC50 (Melanocortin receptor 3) | IC50 (Melanocortin receptor 4) | IC50 [3] | Ki [3]

Reference: ChEMBL document CHEMBL1909046, “DrugMatrix in vitro pharmacology data”
